Data from ChEMBL document CHEMBL1201862, “PubChem BioAssay data set” (2004).
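Each compound was tested at five concentrations against cells in 96-well plates for 48 hours. GI50 marks 50% less growth.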 The source made the active and inactive calls. Rule as the data show it: active = GI50 up to about 1.1 µM and inactive = higher.

Columns and labels:
Test in all cases: NCI tumour cell line growth inhibition, 48 h
HOP-18 = tested on: HOP-18
MOLT-4 = tested on: MOLT-4
NCI-H23 = tested on: NCI-H23
NCI-H522 = tested on: NCI-H522
A549 = tested on: A549
NCI-H226 = tested on: NCI-H226
SR = tested on: SR
786-0 = tested on: 786-0
HT-29 = tested on: HT-29
Hs-578T = tested on: Hs-578T
MDA-MB-435 = tested on: MDA-MB-435
SK-MEL-2 = tested on: SK-MEL-2
SW-620 = tested on: SW-620
OVCAR-8 = tested on: OVCAR-8
UACC-62 = tested on: UACC-62
SK-MEL-28 = tested on: SK-MEL-28
OVCAR-4 = tested on: OVCAR-4
ACHN = tested on: ACHN
TK-10 = tested on: TK-10
BT-549 = tested on: BT-549

Row | Structure (SMILES) | GI50 (HOP-18) | GI50 (MOLT-4) | GI50 (NCI-H23) | GI50 (NCI-H522) | GI50 (A549) | GI50 (NCI-H226) | GI50 (SR) | GI50 (786-0) | GI50 (HT-29) | GI50 (Hs-578T) | GI50 (MDA-MB-435) | GI50 (SK-MEL-2) | GI50 (SW-620) | GI50 (OVCAR-8) | GI50 (UACC-62) | GI50 (SK-MEL-28) | GI50 (OVCAR-4) | GI50 (ACHN) | GI50 (TK-10) | GI50 (BT-549)
1 | COc1ncnc2c(NC3OC(CO)C(O)C3O)ncnc12 (centres undefined) | < 0.01 µM (active) | 0.0471 µM (active) | 0.24 µM (active) | 1.53 µM (inactive) | 0.131 µM (active) | 0.335 µM (active) | 0.0266 µM (active) | 0.537 µM (active) | 0.0685 µM (active) | 1.03 µM (active) | 0.578 µM (active) | 2.47 µM (inactive) | 0.238 µM (active) | 0.329 µM (active) | 0.299 µM (active) | 6.89 µM (inactive) | 0.713 µM (active) | 0.201 µM (active) | 0.298 µM (active) | –
2 | O=C(Cc1nc2ccccc2o1)C(=O)Nc1cccc(Cl)c1 | > 100 µM (inactive) | > 100 µM (inactive) | > 100 µM (inactive) | > 100 µM (inactive) | > 100 µM (inactive) | > 100 µM (inactive) | > 100 µM (inactive) | > 100 µM (inactive) | > 100 µM (inactive) | – | – | > 100 µM (inactive) | > 100 µM (inactive) | > 100 µM (inactive) | > 100 µM (inactive) | > 100 µM (inactive) | > 100 µM (inactive) | > 100 µM (inactive) | > 100 µM (inactive) | –
3 | CC1(C)CC(=O)C(/C(=N/NC(=S)NN)C(=O)Nc2nc3ccc([N+](=O)[O-])cc3s2)C(=O)C1 | 76.7 µM (inactive) | 55.1 µM (inactive) | > 100 µM (inactive) | > 100 µM (inactive) | > 100 µM (inactive) | 55.5 µM (inactive) | > 100 µM (inactive) | > 100 µM (inactive) | > 100 µM (inactive) | – | – | > 100 µM (inactive) | > 100 µM (inactive) | > 100 µM (inactive) | > 100 µM (inactive) | > 100 µM (inactive) | > 100 µM (inactive) | > 100 µM (inactive) | > 100 µM (inactive) | –
4 | O=C(/C=C/c1ccc(O)c(O)c1)OC1C[C@@](O)(C(=O)O)C[C@@H](O)[C@H]1OC(=O)/C=C/c1ccc(O)c(O)c1 (some centres undefined) | > 100 µM (inactive) | > 100 µM (inactive) | > 100 µM (inactive) | > 100 µM (inactive) | > 100 µM (inactive) | > 100 µM (inactive) | > 100 µM (inactive) | > 100 µM (inactive) | > 100 µM (inactive) | – | – | > 100 µM (inactive) | > 100 µM (inactive) | > 100 µM (inactive) | > 100 µM (inactive) | > 100 µM (inactive) | > 100 µM (inactive) | > 100 µM (inactive) | > 100 µM (inactive) | –
5 | CCCCCCCCCCCC[C@@H](O)[C@H]1CC[C@H]([C@H](O)CCCC[C@H](O)CCCCC[C@@H](O)CC2=C[C@H](C)OC2=O)O1 | 3.23 µM (inactive) | 0.363 µM (active) | 0.034 µM (active) | 0.565 µM (active) | 1.29 µM (inactive) | 3.11 µM (inactive) | 2.54 µM (inactive) | 2.82 µM (inactive) | 2.1 µM (inactive) | 3.17 µM (inactive) | 1.98 µM (inactive) | 0.867 µM (active) | 3.22 µM (inactive) | 3.74 µM (inactive) | 1.87 µM (inactive) | 2.8 µM (inactive) | 0.931 µM (active) | 0.116 µM (active) | 3.07 µM (inactive) | 10 µM (inactive)
6 | Cc1c[nH]c2c(O)cc3c(c12)[C@H](CCl)CN3C(=O)c1cc2cc(NC(=O)Nc3ccc4[nH]c(C(=O)N5C[C@@H](CCl)c6c5cc(O)c5[nH]cc(C)c65)cc4c3)ccc2[nH]1 [BIZELESIN] | < 0.001 µM (active) | 0.418 µM (active) | 1.9 µM (inactive) | < 0.001 µM (active) | 11 µM (inactive) | 0.183 µM (active) | 0.0832 µM (active) | 4.9 µM (inactive) | 27.1 µM (inactive) | > 100 µM (inactive) | 0.113 µM (active) | 34.4 µM (inactive) | 17.4 µM (inactive) | 2.62 µM (inactive) | 0.701 µM (active) | 14.6 µM (inactive) | 17.3 µM (inactive) | 0.139 µM (active) | – | 24.9 µM (inactive)
